Converted amounts (≈) assume the structure as drawn.
Columns and labels:
Spodoptera litura = experiment: Insecticidal activity against second-instar larval stage of Spodoptera litura fed with artificial diet containing compound assessed as growth inhibition after 7 days; assay type: functional, organism-based; conditions: for EC50: 168 h
Helicoverpa armigera = experiment: Insecticidal activity against second-instar larval stage of Helicoverpa armigera fed with artificial diet containing compound assessed as growth inhibition after 7 days; assay type: functional, organism-based; conditions: for EC50: 168 h

| SMILES | growth inhibition (GI) (Spodoptera litura) | EC50 (Spodoptera litura) | growth inhibition (GI) (Helicoverpa armigera) | EC50 (Helicoverpa armigera) |
| --- | --- | --- | --- | --- |
| CCCC(CC)C(=O)OCCOC(=O)C(CC)CCC (stereo not drawn) | Dose-dependent effect | 2800 µg/mL (≈ 9.78 mM) | Dose-dependent effect | 2440 µg/mL (≈ 8.52 mM) |
| CCCCC(=O)OCC(C)OC(=O)CCCC (stereo not drawn) | Dose-dependent effect | 4240 µg/mL (≈ 17.4 mM) | Dose-dependent effect | 5540 µg/mL (≈ 22.7 mM) |
| CCCCCC(=O)OCC(C)OC(=O)CCCCC (stereo not drawn) | Dose-dependent effect | 3810 µg/mL (≈ 14 mM) | Dose-dependent effect | 5260 µg/mL (≈ 19.3 mM) |
| CCCC(CC)C(=O)OCC(C)OC(=O)C(CC)CCC (stereo not drawn) | Dose-dependent effect | 3760 µg/mL (≈ 12.5 mM) | Dose-dependent effect | 4860 µg/mL (≈ 16.2 mM) |
| CCCC(=O)OCC(C)COC(=O)CCC | Dose-dependent effect | 4360 µg/mL (≈ 18.9 mM) | Dose-dependent effect | 4230 µg/mL (≈ 18.4 mM) |
| CC(COC(=O)C(C)C)COC(=O)C(C)C | Dose-dependent effect | 7540 µg/mL (≈ 32.7 mM) | Dose-dependent effect | 8170 µg/mL (≈ 35.5 mM) |
| CCCCC(=O)OCC(C)COC(=O)CCCC | Dose-dependent effect | 7020 µg/mL (≈ 27.2 mM) | Dose-dependent effect | 7840 µg/mL (≈ 30.3 mM) |
| CCCCCC(=O)OCC(C)COC(=O)CCCCC | Dose-dependent effect | 7580 µg/mL (≈ 26.5 mM) | Dose-dependent effect | 7760 µg/mL (≈ 27.1 mM) |
| CCCCCCCC(=O)OCC(C)COC(=O)CCCCCCC | Dose-dependent effect | 6210 µg/mL (≈ 18.1 mM) | Dose-dependent effect | 4540 µg/mL (≈ 13.3 mM) |
| CCCC(CC)C(=O)OC1CCC(OC2CCC(OC(=O)C(CC)CCC)CC2)CC1 (stereo not drawn) [4-(4-O-(2-ETHYL)HEXANOYLCYCLOHEXYLOXY)-CYCLOHEXYL-(2-ETHYL)HEXANOATE] | Dose-dependent effect | 6270 µg/mL (≈ 14.3 mM) | Dose-dependent effect | 7000 µg/mL (≈ 16 mM) |
| CCCC(=O)OC1CCC(OC2CCC(OC(=O)CCC)CC2)CC1 (stereo not drawn) [4-(4-O-BUTANOYLCYCLOHEXYLOXY)-CYCLOHEXYL BUTANOATE] | Dose-dependent effect | 6120 µg/mL (≈ 17.3 mM) | Dose-dependent effect | 7230 µg/mL (≈ 20.4 mM) |
| CC(C)C(=O)OC1CCC(OC2CCC(OC(=O)C(C)C)CC2)CC1 (stereo not drawn) [4-(4-O-ISOBUTANOYLCYCLOHEXYLOXY)-CYCLOHEXYL ISOBUTANOATE] | Dose-dependent effect | 7860 µg/mL (≈ 22.2 mM) | Dose-dependent effect | 8110 µg/mL (≈ 22.9 mM) |
| CCCCCCCC(=O)OC1CCC(OC2CCC(OC(=O)CCCCCCC)CC2)CC1 (stereo not drawn) [4-(4-O-OCTANOYLCYCLOHEXYLOXY)-CYCLOHEXYL OCTANOATE] | Dose-dependent effect | 5760 µg/mL (≈ 12.3 mM) | Dose-dependent effect | 6340 µg/mL (≈ 13.6 mM) |
| CCCCC(=O)OC1CCC(OC2CCC(OC(=O)CCCC)CC2)CC1 (stereo not drawn) [4-(4-O-PENTANOYLCYCLOHEXYLOXY)-CYCLOHEXYL PENTANOATE] | Dose-dependent effect | 7890 µg/mL (≈ 20.6 mM) | Dose-dependent effect | 8240 µg/mL (≈ 21.5 mM) |
| CCCC(=O)OCCOCCOC(=O)CCC [DIETHYLENE GLYCOL DIBUTANOATE] | Dose-dependent effect | 1760 µg/mL (≈ 7.15 mM) | Dose-dependent effect | 2890 µg/mL (≈ 11.7 mM) |
| CCCCCC(=O)OCCOCCOC(=O)CCCCC [DIETHYLENE GLYCOL DIHEXANOATE] | Dose-dependent effect | 1940 µg/mL (≈ 6.42 mM) | Dose-dependent effect | 3900 µg/mL (≈ 12.9 mM) |
| CC(C)C(=O)OCCOCCOC(=O)C(C)C [DIETHYLENE GLYCOL DIISOBUTANOATE] | Dose-dependent effect | 5120 µg/mL (≈ 20.8 mM) | Dose-dependent effect | 6450 µg/mL (≈ 26.2 mM) |

— ChEMBL document CHEMBL3045652, “Biorational glycol diesters as dietary toxins versus bioefficacy of sucrose octanoate against lepidopteran larvae” (Ind Crops Prod, 2012)
